The values below are quoted from earlier work in US7060710B2, “Isoxazole pyrazoloindane derivatives as cognition enhancing GABAA α5 subtype ligands” (Merck Sharp & Dohme Ltd., priority 2001, dated 2006).

The structures appear in SMILES notation.

For data set [1] the following is noted: reported by McNamara and Skelton.
The conditions of data set [2]: background statement.

`COC(=O)c1cc2c(cn1)[nH]c1ccccc12` [β-CCM]: the “spatial learning in the Morris watermaze” value in data set [1] was “enhanced spatial learning”. The proconvulsant activity entry in data set [2] was “proconvulsant”.
